Like-named read-outs stand apart in the source and are kept apart here.
Biological target: T1, TBK1 (Homo sapiens, UniProt Q9UHD2)
T1 sequence (Q9UHD2 1-729): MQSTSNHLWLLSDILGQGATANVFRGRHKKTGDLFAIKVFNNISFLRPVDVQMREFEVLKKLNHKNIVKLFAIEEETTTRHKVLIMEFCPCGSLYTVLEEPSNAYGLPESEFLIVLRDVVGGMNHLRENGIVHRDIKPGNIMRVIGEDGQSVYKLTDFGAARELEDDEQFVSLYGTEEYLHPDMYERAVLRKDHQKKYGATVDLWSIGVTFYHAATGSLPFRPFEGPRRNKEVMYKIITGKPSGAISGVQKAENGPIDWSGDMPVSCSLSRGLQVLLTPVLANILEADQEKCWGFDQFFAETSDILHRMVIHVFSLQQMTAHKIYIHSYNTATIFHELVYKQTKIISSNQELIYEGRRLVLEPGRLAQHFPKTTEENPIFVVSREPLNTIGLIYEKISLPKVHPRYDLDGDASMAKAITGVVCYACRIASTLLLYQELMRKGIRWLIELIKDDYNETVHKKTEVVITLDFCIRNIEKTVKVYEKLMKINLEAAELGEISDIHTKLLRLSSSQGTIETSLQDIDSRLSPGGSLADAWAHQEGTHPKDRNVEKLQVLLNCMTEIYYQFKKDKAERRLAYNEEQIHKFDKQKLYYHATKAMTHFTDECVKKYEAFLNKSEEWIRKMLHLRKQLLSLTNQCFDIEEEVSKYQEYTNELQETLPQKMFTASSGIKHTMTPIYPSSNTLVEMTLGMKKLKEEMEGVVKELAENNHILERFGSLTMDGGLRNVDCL
Assay: FRET-based Z'-LYTE TBK1 enzymatic assay
Format: biochemical
Design: purchased Thermo Scientific A31513
Details: for IC50: mean of two separate experiments; for inhibition at 0.001 µM: compound at 1 nM, read-out: TBK1 inhibition (%) 1 nM; for inhibition at 0.0001 µM: compound at 0.1 nM, read-out: TBK1 inhibition (%) 0.1 nM

[1] = read-out: TBK1 inhibition (%) 100 nM, compound at 100 nM, 100 µM ATP
[2] = read-out: TBK1 inhibition (%) 1 μM, compound at 1 μM, 100 µM ATP
[3] = read-out: TBK1 inhibition (%) 10 μM, compound at 10 μM, 100 µM ATP
[4] = read-out: TBK1 inhibition (%) 10 nM, compound at 10 nM, 100 µM ATP
[5] = compound at 100 nM, 100 µM ATP, read-out: TBK1 inhibition (%) 100 nM
[6] = compound at 1 μM, 100 µM ATP, read-out: TBK1 inhibition (%) 1 μM
[7] = compound at 10 μM, 100 µM ATP, read-out: TBK1 inhibition (%) 10 μM
[8] = compound at 10 nM, 100 µM ATP, read-out: TBK1 inhibition (%) 10 nM

| inhibition at 0.1 µM [5] [%] | inhibition at 1 µM [6] [%] | IC50 (100 µM ATP) [nM] | inhibition at 0.01 µM [8] [%] | SMILES | inhibition at 0.1 µM [1] [%] | inhibition at 1 µM [2] [%] | inhibition at 10 µM [3] [%] | also measured |
| --- | --- | --- | --- | --- | --- | --- | --- | --- |
| – | – | – | – | CN1CCN(Cc2ccc(-c3cnc4[nH]nc(NCCCc5ccccc5)c4c3)cc2)CC1 [Compound 12d] | -5.6 | -5.8 | -4.7 | – |
| – | – | – | – | Cc1nc2cc(-c3n[nH]c4ncc(-c5ccc(S(N)(=O)=O)cc5)cc34)cc(F)c2o1 [Compound 15r] | 10.8 | 5.7 | 56.8 | inhibition at 0.01 µM [4]: -2.6% |
| 28.7 | 81.4 | 290 | – | CN1CCN(Cc2ccc(-c3cnc4[nH]nc(-c5cccc6cnccc56)c4c3)cc2)CC1 [Compound 15f] | – | – | – | inhibition at 10 µM [7]: 101% |
| – | – | – | – | NS(=O)(=O)c1ccc(-c2cnc3[nH]nc(-c4cnn(CCN5CCOCC5)c4)c3c2)cc1 [Compound 15n] | -8.9 | -15 | -12.5 | – |
| 45 | 82.6 | 288 | 19.5 | COC(=O)c1cccc(-c2cnc3[nH]nc(-c4ccc5ncn(C(C)C)c5c4)c3c2)c1 [Compound 15k] | – | – | – | inhibition at 10 µM [7]: 106% |
| – | – | – | – | Cc1nc2c(F)cc(-c3n[nH]c4ncc(-c5ccc(S(N)(=O)=O)cc5)cc34)cc2o1 [Compound 15p] | 30.6 | 37.1 | 41.1 | inhibition at 0.01 µM [4]: 32% |
| – | – | – | – | CN1CCN(Cc2ccc(-c3cnc4[nH]nc(-c5ccc6[nH]ccc6c5)c4c3)cc2)CC1 [Compound 15a] | 13.2 | 36.5 | 83 | – |
| 75.6 | 104 | 58.9 | 29.1 | CC(C)n1cnc2ccc(-c3n[nH]c4ncc(-c5ccc(C(N)=O)cc5)cc34)cc21 [Compound 15h] | – | – | – | inhibition at 0.001 µM (100 µM ATP): 24%; inhibition at 10 µM [7]: 103% |
| 84.4 | 79.5 | 24.4 | 48.4 | Cc1nc2c(F)cc(-c3n[nH]c4ncc(-c5cccc(S(N)(=O)=O)c5)cc34)cc2n1C1CC1 [Compound 15z] | – | – | – | inhibition at 0.001 µM (100 µM ATP): 32.7% |
| – | – | – | – | CN1CCN(Cc2ccc(-c3cnc4[nH]nc(NCc5ccc(Cl)cc5Cl)c4c3)cc2)CC1 [Compound 12c] | -30.1 | -6.7 | -2 | – |
| 91.7 | 108 | 26 | 29.9 | CC(C)n1cnc2ccc(-c3n[nH]c4ncc(-c5ccc(C(=O)N6CCN(C)CC6)cc5)cc34)cc21 [Compound 15g] | – | – | – | inhibition at 0.001 µM (100 µM ATP): 8.6%; inhibition at 10 µM [7]: 108% |
| – | – | – | – | CN1CCN(Cc2ccc(-c3cnc4[nH]nc(-c5cccc(N)c5)c4c3)cc2)CC1 [Compound 15b] | 11 | 14.3 | 47.9 | – |
| – | – | – | – | CN1CCN(Cc2ccc(-c3cnc4[nH]nc(NCc5ccccc5)c4c3)cc2)CC1 [Compound 12a] | -14.5 | -13.6 | -8 | – |
| – | – | – | – | CN1CCN(Cc2ccc(-c3cnc4[nH]cc(-c5ccc6[nH]ccc6c5)c4c3)cc2)CC1 [URMC-099, reference compound] | – | – | 75.4 | TBK1 inhibition (%) 10 μM (compound at 10 μM, 100 µM ATP): 75.3% |
| 80.5 | 75.8 | 22 | 34.1 | Cc1nc2c(F)cc(-c3n[nH]c4ncc(-c5ccc(CN6CCN(C)CC6)cc5)cc34)cc2n1C(C)C [Compound 15x] | – | – | – | inhibition at 0.001 µM (100 µM ATP): 18.6% |
| 67.1 | 104 | 67.2 | 31.5 | CC(=O)Nc1cc(-c2cnc3[nH]nc(-c4ccc5ncn(C(C)C)c5c4)c3c2)ccn1 [Compound 15j] | – | – | – | inhibition at 0.001 µM (100 µM ATP): 14.2%; inhibition at 10 µM [7]: 103% |
| 70.3 | 87.4 | 31.2 | 49.7 | Cc1nc2c(F)cc(-c3n[nH]c4ncc(-c5ccc(S(N)(=O)=O)cc5)cc34)cc2n1C1CC1 [Compound 15v] | – | – | – | inhibition at 0.0001 µM (100 µM ATP): 37.7%; inhibition at 0.001 µM (100 µM ATP): 42.5% |
| – | – | – | – | NS(=O)(=O)c1ccc(-c2cnc3[nH]nc(-c4cnn(C5CCOCC5)c4)c3c2)cc1 [Compound 15l] | -7.2 | -0.6 | 21.9 | – |
| – | – | – | – | CC(C)n1c(C(F)(F)F)nc2c(F)cc(-c3n[nH]c4ncc(-c5cccc(S(N)(=O)=O)c5)cc34)cc21 [Compound 15aa] | 36.8 | 48.3 | – | inhibition at 0.01 µM [4]: 14.1% |
| – | – | – | – | NS(=O)(=O)c1ccc(-c2cnc3[nH]nc(-c4cnn(CCO)c4)c3c2)cc1 [Compound 15o] | -2.7 | -7.4 | 23.3 | – |
| 52.5 | 84.1 | 131 | 18 | CN1CCN(Cc2ccc(-c3cnc4[nH]nc(-c5ccc6[nH]cnc6c5)c4c3)cc2)CC1 [Compound 15d] | – | – | – | inhibition at 10 µM [7]: 102% |
| – | – | – | – | NS(=O)(=O)c1ccc(-c2cnc3[nH]nc(-c4cc(F)c5cn[nH]c5c4)c3c2)cc1 [Compound 15q] | 12.7 | 25.5 | 83.9 | inhibition at 0.01 µM [4]: 4.5% |
| – | – | – | – | CN1CCN(Cc2ccc(-c3cnc4[nH]nc(NCCc5ccc(F)cc5)c4c3)cc2)CC1 [Compound 12e] | -1.4 | -2.4 | -5 | – |
| 76.9 | 97.2 | 6.2 | 68.6 | Cc1nc2ccc(-c3n[nH]c4ncc(-c5ccc(S(N)(=O)=O)cc5)cc34)cc2n1C(C)C [Compound 15s] | – | – | – | inhibition at 0.001 µM (100 µM ATP): 45.5% |
| – | – | – | – | COc1ccc(CCNc2n[nH]c3ncc(-c4ccc(CN5CCN(C)CC5)cc4)cc23)cc1 [Compound 12f] | -9.7 | -7.9 | -0.5 | – |
| – | – | – | – | CN1CCN(Cc2ccc(-c3cnc4[nH]nc(NCCCN5CCOCC5)c4c3)cc2)CC1 [Compound 12h] | -7.8 | -4.3 | -5.2 | – |
| 62.8 | 104 | 75.3 | 14.3 | CC(C)n1cnc2ccc(-c3n[nH]c4ncc(-c5ccc(CN6CCN(C)CC6)cc5)cc34)cc21 [Compound 15e] | – | – | – | inhibition at 10 µM [7]: 108% |
| 79.5 | 99.1 | 0.8 | 78 | Cc1nc2c(F)cc(-c3n[nH]c4ncc(-c5ccc(S(N)(=O)=O)cc5)cc34)cc2n1C(C)C [Compound 15t] | – | – | – | fold increase of TBK1 activity compared with compound 15i (compared with 15i): 10 times; inhibition at 0.0001 µM (100 µM ATP): 43.1%; inhibition at 0.001 µM (100 µM ATP): 61.6% |
| – | – | – | – | NS(=O)(=O)c1ccc(-c2cnc3[nH]nc(-c4ccc(N5CCOCC5)cc4)c3c2)cc1 [Compound 15m] | -8.9 | -6 | -11 | – |
| – | – | – | – | CC(C)n1c(C(F)(F)F)nc2c(F)cc(-c3n[nH]c4ncc(-c5ccc(S(N)(=O)=O)cc5)cc34)cc21 [Compound 15w] | 27.1 | – | – | TBK1 inhibitory activity (in words): almost lost TBK1 activity; inhibition at 0.01 µM [4]: 10.7% |
